Test system: patients with acute primary supratentorial ICH
Experiment: Adverse events and safety endpoints, CATCH trial
Assay type: in vivo, human
[1] = Related, Treatment Emergent Non-Serious AEs
[2] = Treatment Emergent Non-Serious AEs
[3] = non-serious TEAE events, Total, Total severity

Ac-VSRRR-NH2 [CN-105]
0: # of Events, Severe [1] | # of Subjects, Severe [1]
230 (100) N (%): Grand Total (non-serious TEAE events, Total severity)
Eleven: treatment emergent SAEs, number of events (deemed unlikely related to study drug)
5 (2.2) N (%): Agitation [3] | Anemia [3] | Delirium [3] | Fall [3] | Hyperglycemia [3] | Hypocalcemia [3]
Unrelated: SAE Drug administration error (Medication administration error), Relatedness (all SAEs, subject 101-003, Moderate, day 2-2, Recovered / Resolved) | SAE Failure to thrive, Relatedness (all SAEs, subject 101-004, Moderate, day 23-57, Recovered / Resolved) | SAE Brain herniation (Cerebral herniation), Relatedness (all SAEs, subject 101-007, Severe, day 0-5, Fatal) | SAE Urinary tract infection, Relatedness (all SAEs, subject 101-013, Moderate, day 39-44, Recovered / Resolved) | SAE Pulmonary embolism, Relatedness (all SAEs, subject 101-015, Severe, day 22-32, Recovered / Resolved) | SAE Cerebral haemorrhage (Worsening of Intracerebral Hemorrhage), Relatedness (all SAEs, subject 101-018, Severe, day 0-6, Fatal) | SAE Dural arteriovenous fistula, Relatedness (all SAEs, subject 102-002, Moderate, day 1-1, Recovered / Resolved) | SAE Deep vein thrombosis (Left Popliteal Vein), Relatedness (all SAEs, subject 102-010, Severe, day 75-83, Recovered / Resolved) | SAE Respiratory distress, Relatedness (all SAEs, subject 103-001, Moderate, day 1-35, Recovered / Resolved) | SAE Brain herniation, Relatedness (all SAEs, subject 104-001, Severe, day 0-4, Fatal) | SAE Partial seizures (Focal Seizure), Relatedness (all SAEs, subject 106-002, Severe, day 8-18, Recovered / Resolved) | Treatment emergent SAE Failure to thrive, Relatedness (subject 101-004, Moderate, day 23-57, Recovered / Resolved) | Treatment emergent SAE Urinary tract infection, Relatedness (subject 101-013, Moderate, day 39-44, Recovered / Resolved) | Treatment emergent SAE Pulmonary embolism, Relatedness (subject 101-015, Severe, day 22-32, Recovered / Resolved) | Treatment emergent SAE Dural arteriovenous fistula, Relatedness (subject 102-002, Moderate, day 1-1, Recovered / Resolved) | Treatment emergent SAE Deep vein thrombosis (Left Popliteal Vein), Relatedness (subject 102-010, Severe, day 75-83, Recovered / Resolved) | Treatment emergent SAE Respiratory distress, Relatedness (subject 103-001, Moderate, day 1-35, Recovered / Resolved) | Treatment emergent SAE Partial seizures (Focal Seizure), Relatedness (subject 106-002, Severe, day 8-18, Recovered / Resolved)
5: # of Subjects, Moderate [1]
29%: treatment emergent AE pain, participants (38 participants)
7 (3) N (%): Hypomagnesemia [3] | Hyponatremia [3] | Nausea [3]
Related: SAE Pneumonia (Left upper lobe pneumonia), Relatedness (all SAEs, subject 101-004, Moderate, day 1-8, Recovered / Resolved) | SAE Cerebral haemorrhage (Left Frontal IPH), Relatedness (all SAEs, subject 101-004, Severe, day 58-62, Recovered / Resolved) | SAE Respiratory failure (Hypoxic Respiratory Failure), Relatedness (all SAEs, subject 101-008, Moderate, day 2-4, Recovered / Resolved) | Treatment emergent SAE Pneumonia (Left upper lobe pneumonia), Relatedness (subject 101-004, Moderate, day 1-8, Recovered / Resolved) | Treatment emergent SAE Cerebral haemorrhage (Left Frontal IPH), Relatedness (subject 101-004, Severe, day 58-62, Recovered / Resolved)
86: # of Events [1]
18%: treatment emergent AE hypomagnesemia, participants (38 participants) | treatment emergent AE hyponatremia, participants (38 participants) | treatment emergent AE nausea, participants (38 participants)
16: # of Subjects [1] | # of Subjects, Mild [1]
31: # of Subjects (All Non-Serious AEs)
16%: treatment emergent AE pyrexia, participants (38 participants)
24%: participants experiencing treatment emergent SAEs (9 of 38 participants) | treatment emergent AE leukocytosis, participants (38 participants)
9 (3.9) N (%): Hypophosphatemia [3] | Leukocytosis [3]
230: # of Events [2]
51: # of Events, Moderate (All Non-Serious AEs)
13: # of Events, Moderate [1]
2 (0.9) N (%): Bradycardia [3] | Brain edema [3] | Chest pain [3] | Diarrhea [3] | Edema [3] | Flatulence [3] | Hyperchloremia [3] | Hyperlipidemia [3] | Hypermagnesemia [3] | Hypotension [3] | Impulsive behaviour [3] | Intracranial pressure increased [3] | Lactic acidosis [3] | Neuralgia [3] | Pneumothorax [3] | Seizure [3] | Subarachnoid haemorrhage [3] | Tachycardia [3] | Vomiting [3]
30: # of Subjects, Mild (All Non-Serious AEs) | # of Subjects [2]
3 (1.3) N (%): Depressed mood [3] | Dysphagia [3] | Dyspnea [3] | Hydrocephalus [3] | Nasal congestion [3] | Tachypnea [3] | Thrombocytopenia [3]
3: # of Events, Severe (All Non-Serious AEs) | # of Events, Severe [2]
11 (4.8) N (%): Constipation [3]
6 (2.6) N (%): Pyrexia [3]
50: # of Events, Moderate [2]
1 (0.4) N (%): Alcohol withdrawal syndrome [3] | Anxiety [3] | Atelectasis [3] | Atrial fibrillation [3] | Azotemia [3] | Bacteremia [3] | Benign prostatic hyperplasia [3] | Bladder catheterization [3] | Blood phosphorus decreased [3] | Candida infection [3] | Cognitive disorder [3] | Confusional state [3] | Cough [3] | Decubitus ulcer [3] | Deep vein thrombosis [3] | Dehydration [3] | Depression [3] | Endotracheal intubation [3] | Eustachian tube dysfunction [3] | Exophthalmos [3] | Gastrointestinal hemorrhage [3] | Helicobacter infection [3] | Hematocrit decreased [3] | Hypernatremia [3] | Hypoglycemia [3] | Medical observation [3] | Muscle spasticity [3] | Musculoskeletal pain [3] | Neurological decompensation [3] | Partial seizures [3] | Patella fracture [3] | Pneumocephalus [3] | Pneumonia aspiration [3] | Procedural pain [3] | Pulmonary congestion [3] | Pulmonary embolism [3] | Reflux gastritis [3] | Respiratory failure [3] | Scleral oedema [3] | Scrotal irritation [3] | Sepsis [3] | Sleep apnea syndrome [3] | Somnolence [3] | Staphylococcal infection [3] | Thrombocytosis [3] | Thrombosis [3] | Tremor [3] | Troponin increased [3] | Urinary incontinence [3]
26%: treatment emergent AE constipation, participants (38 participants)
19: # of Subjects, Moderate (All Non-Serious AEs) | # of Subjects, Moderate [2]
No participants: central nervous system (CNS) infection (38 participants)
237: # of Events (All Non-Serious AEs)
32%: participants experiencing nonfatal SAEs (12 of 38 participants)
5%: participants receiving treatment for elevated intracranial pressure (Two of 38, both died in-hospital of brain herniation from index ICH)
4 (1.7) N (%): Acute kidney injury [3] | Headache [3] | Hypokalemia [3] | Pneumonia [3] | Urinary retention [3] | Urinary tract infection [3]
12 (5.2) N (%): Pain [3]
21%: treatment emergent AE hypophosphatemia, participants (38 participants)
177: # of Events, Mild [2]
2: # of Subjects, Severe (All Non-Serious AEs) | # of Subjects, Severe [2]
No participant experienced changes: changes in electrocardiogram parameters (38 participants)
183: # of Events, Mild (All Non-Serious AEs)
8%: participants who died prior to 30-day follow up (Three of 38, in-hospital, related to primary disease)
29: # of Subjects, Mild [2]
73: # of Events, Mild [1]
13%: participants with in-hospital neurological deterioration (Five of 38, increase of NIHSS>2 from baseline persisting more than 24 hours)

Source: article doi:10.1101/2020.10.13.20211417v1 (medRxiv, 2020)
